Data published in patent US20250213524A1, “COMPOSITIONS FOR USE” (Amazentis SA, priority 2023, published 2025).

System: human sperm
Test: Ex vivo incubation of human semen samples with urolithin A, motility by computer-assisted semen analysis (CEROS II)
Assay type: cell-based
Conditions: for Motile sperm concentration (million/mL), UA vs. DMSO: 4 hours incubation at 36° C.; for Motile sperm concentration (million/mL), UA vs. DMSO / BCF Beat Cross-Frequency, UA vs. DMSO / Rapid progressive motile sperm concentration (million/mL), UA vs. DMSO: increase vs. DMSO; for Rapid progressive motile sperm concentration (million/mL), UA vs. DMSO: rapid progressive motility >25 μm/s; for motile sperm concentration: increase
Experimental: Sperm samples from five healthy men donors were processed within 1 hour of collection. 3 samples were either diluted 1:1 in culture media containing DMSO or urolithin A (UA) (0.05, 0.1, 0.5, and 2.0 μM in DMSO). For these samples, all treatments contained the same amount of DMSO. Two samples were pre-diluted in culture media, which was then diluted in the treatment solutions, immediately. This was to decrease the eventual effect of seminal plasma. Samples were incubated for 4 hours with the indicated UA doses. For the study, semen samples were obtained by masturbation after 2-7 days of ejaculatory abstinence, according to World Health Organization Guidelines (https://www.who.int/publications/i/item/9789240030787). Samples were collected into sterile wide-mouth polypropylene containers tested for sperm toxicity (BIRR semen collection container, IVF store code 113102). After collection, samples were kept in an air incubator for 1 hour, until semen liquefaction. For experiments, a 50 mM stock Urolithin A (UA) solution was prepared in Dimethyl Sulfoxide (DMSO, Fisher Scientific, BP231-100). At the day of the experiments, a working solution was prepared by diluting the 50 mM stock solution 1:1000 in Sperm Washing Medium (FujiFilm Modified HTF Medium with Human Serum Albumin, 5.0 mg/mL, catalog ID: 9983). A blank working solution containing only DMSO was also prepared by diluting DMSO 1:1000 in Sperm Washing Medium. Treatment solutions were then prepared containing 0, 0.1 μM, 0.2 μM, 1.0 μM, and 4.0 μM were prepared as follows: Treatment solutions were then diluted 1:1 with raw semen (samples A, B, and D) or with semen that had been pre-diluted 1:1 in Sperm Washing Medium (samples C and E), so that final achieved treatment concentrations were 0 (blank, DMSO only, 0.05 µM, 0.1 μM, 0.5 μM, and 2.0 µM UA. This was incubated at 36° C. for 4 hours, after which motility was assessed using a CEROS II system for computer-assisted semen analysis (Hamilton Thorne Inc., Beverly, MA, USA). To achieve this, 4-chamber 20 μm Leja slides (IMV International Ref. 025107-025108) were pre-heated at 37° C. 2.5 μL of each sample was pipetted into each chamber, and the Human Motility module of the CEROS II system was used to capture multiple fields (at least 6) in order to determine sperm motility parameters.

[1] = all doses (0.05, 0.1, 0.5, 2.0 μM), 4 hours incubation

O=c1oc2cc(O)ccc2c2ccc(O)cc12 [UA, Urolithin A]
Motile sperm concentration (million/mL), UA vs. DMSO (0.05 uM UA): 2%
BCF Beat Cross-Frequency, UA vs. DMSO (0.05 uM UA, 4 hours incubation, motile sperm): 5%
Rapid progressive motile sperm concentration (million/mL), UA vs. DMSO (0.05 uM UA, 4 hours incubation): 2%
Motile sperm concentration (million/mL), UA vs. DMSO (0.1 uM UA): 16.8%
BCF Beat Cross-Frequency, UA vs. DMSO (0.1 uM UA, 4 hours incubation, motile sperm): 6%
Rapid progressive motile sperm concentration (million/mL), UA vs. DMSO (0.1 uM UA, 4 hours incubation): 20%
Motile sperm concentration (million/mL), UA vs. DMSO (0.5 uM UA): 10.7%
BCF Beat Cross-Frequency, UA vs. DMSO (0.5 uM UA, 4 hours incubation, motile sperm): 9%
Rapid progressive motile sperm concentration (million/mL), UA vs. DMSO (0.5 uM UA, 4 hours incubation): 10%
Motile sperm concentration (million/mL), UA vs. DMSO (2 uM UA): 21.4%
BCF Beat Cross-Frequency, UA vs. DMSO (2 uM UA, 4 hours incubation, motile sperm): 7%
Rapid progressive motile sperm concentration (million/mL), UA vs. DMSO (2 uM UA, 4 hours incubation): 20%
Motile sperm concentration, effect in words [1]: increased at all doses
Rapid progressive motile sperm concentration, effect in words [1]: increased at all doses
Beat Cross-Frequency, effect in words (all doses (0.05, 0.1, 0.5, 2.0 μM), motile sperm, 4 hours incubation): an increase by UA at all doses
sperm motility / sperm health, effect in words (applied ex vivo to human sperm, especially 0.1 uM to 2 uM): increases sperm motility
motile sperm concentration (highest UA 2 μM dose, 4 hours incubation): 20%
motile sperm concentration (lower dose of UA 0.05 μM, 4 hours incubation): 2%
